# Measurements: patent EP3431088A1, “MNTBAP FOR USE IN INDUCING A TRANSIENT IMMUNE TOLERANCE” (priority 2017, dated 2019)
# Experiments:
# [1] = tested on: CD4 and P56^Lck; experiment: CD4 immunoprecipitation probed with anti-p56Lck; assay type: cell-based; details: viable murine splenic enriched CD4+ T cells, 2 hours, 400 µM
# Protocol: Cells, harvested after 2 hours of culture with or without MnTBAP, are resuspended in solubilization buffer containing 1% NP-40 (Sigma-Aldrich), 0.1 M (NH4)2SO4, 20 mM Tris (pH 7.5), 10% glycerol, 25 mM NaF (Sigma-Aldrich), 1 mM Na3VO4 (Thermo Fisher Scientific, Villebon-sur-Yvette, France) and 1x protease inhibitor mixture (Roche, Basel, Switzerland). After 30 minutes of incubation under gentle agitation, cell lysates are centrifuged at 14,000 x g for 30 minutes. Lysates are frozen in aliquots at -20°C or used immediately. Immunoprecipitation is performed by incubation overnight of lysates with rat anti-mouse CD4 (GK 1.5, Biolegend, San Diego, CA, USA) under gentle agitation at 4°C. The antigen-antibody complex is then added to Protein A/G resin slurry (Pierce, Thermo Fisher scientific), and incubated with gentle mixing for 2 hours at room temperature, and finally microcentrifuged for 30 seconds. The pellet is washed five times with solubilization buffer, and the immunoprecipitated material is eluted by incubating the complex for 2-5 minutes at 95-100°C in Laemmli sample buffer prepared without β-ME. […] Infrared fluorescence of the secondary antibodies was read on an Odyssey Imaging System, and quantification of bands was performed using the ImageStudio Lite software (LI-COR Biosciences).
# [2] = tested on: Reactive Oxygen Species (ROS); experiment: In vivo chemiluminescence imaging of localized inflammation (L-012); design: species or system mice; details: 4 days after first MnTBAP injection, IM rAAV gene transfer, vs PBS
# Protocol: MnTBAP (Calbiochem, San Diego, USA or Enzo Life Sciences, Farmingdale, USA) is dissolved in 75 mM NaOH to constitute a 20 mM stock solution. MnTBAP is dissolved in the complete medium, used for in vitro treatment, containing RPMI-1640 supplemented with 10% heat-inactivated fetal calf serum, 100 U/ml penicillin/streptomycin, 2 mM glutamax and 50 µM β-mercaptoethanol β-ME). Hypertonic medium, used to block clathrin dependent endocytosis, is complete medium supplemented with 0.45 M sucrose. For in vivo treatment, the stock solution is diluted with PBS and administered at 80 mg/kg intraperitoneally daily during five days. Control animals are injected with equivalent volume of PBS.
# Intramuscular (IM) injection: Two hours post first intraperitoneal (IP) injection of MnTBAP, mice are anesthetized by IP injection of xylazine (10 mg/kg) and ketamine (100 mg/kg) and 25 µl of a rAAV2/1 CMV SGCA HY viral preparation containing 2.5.10^9 vg is injected in the left tibialis anterior muscle (TA). Controls are injected with PBS. Mice are sacrificed 15 days after vector injection and the injected muscles are harvested to perform histologic analysis. […]
# After mice isofluorane anaesthesia, 100 µl of L-012 solution (15 mg/ml) (Wako, Osaka, Japan) are administered intravenously in retro-orbital sinus 4 days after first MnTBAP injection. […] Radiance (ph/s/cm^2/sr) is measured for each Region of Interest (ROI).
# [3] = tested on: splenic enriched CD4^+ T cells; experiment: Cell viability by Fixable Viability Dye eFluor 780, flow cytometry; assay type: cell-based, murine; details: 400 µM, 2 hours
# Protocol: After mechanic disruption of the spleen, erythrocytes are eliminated by hypotonic shock with ammonium chloride potassium (ACK) lysing buffer. Then CD4^+ T cells are isolated from spleen cell suspension by negative selection using a CD4^+ T cell isolation kit (Miltenyi Biotec, Paris, France) followed by auto-MACS (Miltenyi Biotec) magnetic sorting, according to the manufacturer's instructions. Purity of isolated CD4^+ T cells is usually > 95%. Cell suspensions are first incubated with anti-FcγRIII/II (Fc Block, 2.4G2, BD Biosciences, Le Pont de Claix, France) monoclonal antibodies (mAb) for 10 minutes at 4°C and then stained for 30 minutes at 4°C in PBS, 0.1% bovine serum albumin (BSA) with Fc Block present, using saturating amounts of rat anti-mouse CD4-Pacific Blue (RM4-5, BD Biosciences) mAb. Gates for CD4^+ populations are set according to isotype controls. Cell viability is determined by staining with 7-aminoactinomycin D (7-AAD; Sigma-Aldrich, St-Quentin-Fallavier, France) or Fixable Viability Dye eFluor 780 (eBiosciences, Paris, France). When indicated, samples are fixed with 1% paraformaldehyde. Samples are acquired on an LSR II flow cytometer (BD Biosciences) and data were analyzed with DIVA software (BD Biosciences).
smiles,measurement,setting,value
"O=C(O)c1ccc(-c2c3nc(c(-c4ccc(C(=O)O)cc4)c4ccc([n-]4)c(-c4ccc(C(=O)O)cc4)c4nc(c(-c5ccc(C(=O)O)cc5)c5ccc2[n-]5)C=C4)C=C3)cc1.[Mn+3] [MnTBAP, manganese [III] tetrakis (4-benzoic acid) porphyrin]",link between CD4 and P56^Lck,[1],disruption of CD4 and P56^Lck is observed
same,"Reactive Oxygen Species (ROS), average radiance of left inferior limb",[2],produce less Reactive Oxygen Species (ROS)
same,cell death (eFluor 780+ dead cells),[3],doesn't result in more eFluor 780+ dead cells
